Columns and labels:
Dopamine receptor [1] = experiment: In vitro binding affinity towards dopamine receptor was determined in rat striatal membrane using [3H]spiroperidol as the radioligand; assay type: cell membranes, Striatum
Rattus norvegicus [2] = organism: Rattus norvegicus; experiment: Inhibitory activity against prolactin release in rat anterior pituitary cells; assay type: functional, cell-based; conditions: Pituitary gland cell
Rattus norvegicus [3] = organism: Rattus norvegicus; experiment: Minimum effective dose required to produce stereotypies in rats; assay type: functional; conditions: read-out: MED
Rattus norvegicus [4] = organism: Rattus norvegicus; experiment: Minimum effective dose required to decrease striatal DA turnover in rats; assay type: functional; conditions: read-out: MED
[5] = Lethal dose in male mice (administered ip), activity expressed as LD50 values.; assay type: toxicity, organism-based; conditions: mouse, in vivo
Dopamine receptor [6] = target: Dopamine receptor (Bos taurus, UniProt Q95136+P20288); experiment: In vitro binding affinity towards dopamine receptor was determined in bovine anterior pituitary membrane using [3H]dihydroergocriptine as the radioligand; assay type: cell membranes
Rattus norvegicus [7] = organism: Rattus norvegicus; experiment: Minimum effective dose required to induce rotations in rats with unilateral lesion in the nigrostriatal pathway; assay type: functional; conditions: read-out: MED
Rattus norvegicus [8] = experiment: Inhibitory activity against plasma prolactin level in male Sprague-Dawley rats after peroral administration (5mg/Kg), activity expressed as mean duration for submaximal inhibition; Duration 3-4h; assay type: functional
Canis familiaris = experiment: Minimum effective dose (sc) to induce emesis in male or female Beagle dogs; assay type: functional; conditions: Canis lupus familiaris, read-out: MED
Rattus norvegicus [9] = experiment: Inhibitory activity against plasma prolactin level in male Sprague-Dawley rats after peroral administration (5mg/Kg), activity expressed as mean duration for submaximal inhibition; assay type: functional
Rattus norvegicus [10] = experiment: Inhibitory activity against plasma prolactin level in male Sprague-Dawley rats after peroral administration (5mg/Kg), activity expressed as mean duration for submaximal inhibition; Duration 4-8h; assay type: functional
Rattus norvegicus [11] = experiment: Inhibitory activity against plasma prolactin level in male Sprague-Dawley rats after peroral administration (5mg/Kg), activity expressed as mean duration for submaximal inhibition; Duration 3-6h; assay type: functional

Question: For `CN1CCO[C@@H]2c3cccc4c3c(cn4C)C[C@H]21`, which IC50 (Dopamine receptor [1]) is on record?
Answer: Its IC50 is 4500 nM.

Question: And the IC50 (Rattus norvegicus [2])?
Answer: Its IC50 is over 10000 nM.

Question: And the minimal effective dose (Rattus norvegicus [3])?
Answer: The minimal effective dose was 20 mg/kg.

Question: And the minimal effective dose (Rattus norvegicus [4])?
Answer: Its minimal effective dose is 10 mg/kg.

Question: And the LD50 [5]?
Answer: Its LD50 is over 200 mg/kg.

Question: What about the IC50 (Dopamine receptor [6]) of the same compound?
Answer: Its IC50 is 4800 nM.

Question: What about the minimal effective dose (Rattus norvegicus [7]) of the same compound?
Answer: Its minimal effective dose is 2 mg/kg.

Question: And the Duration (Rattus norvegicus [8])?
Answer: Its Duration is 3 h.

Question: And the minimal effective dose (Canis familiaris)?
Answer: The minimal effective dose was 1 mg/kg.

Question: Which results are given for `CCCN1CCO[C@@H]2c3cccc4[nH]c(Br)c(c34)C[C@H]21`?
Answer: IC50 (Dopamine receptor [1]): 250 nM; IC50 (Rattus norvegicus [2]): 0.2 nM; Duration (Rattus norvegicus [9]): >12 h; minimal effective dose (Rattus norvegicus [3]): 0.2 mg/kg; minimal effective dose (Rattus norvegicus [4]): 0.5 mg/kg; LD50 [5]: > 200 mg/kg; IC50 (Dopamine receptor [6]): 500 nM; minimal effective dose (Rattus norvegicus [7]): 0.2 mg/kg; minimal effective dose (Canis familiaris): > 0.5 mg/kg

Question: With `CCCN1CCO[C@@H]2c3cccc4c3[C@@H](CN4)C[C@H]21` as the compound, how does the IC50 (Dopamine receptor [1]) read?
Answer: The IC50 was 600 nM.

Question: And the IC50 (Rattus norvegicus [2])?
Answer: The IC50 was 0.1 nM.

Question: What about the Duration (Rattus norvegicus [9]) of the same compound?
Answer: Its Duration is over 12 h.

Question: What about the minimal effective dose (Rattus norvegicus [3]) of the same compound?
Answer: Its minimal effective dose is 0.1 mg/kg.

Question: And the minimal effective dose (Rattus norvegicus [4])?
Answer: Its minimal effective dose is 0.1 mg/kg.

Question: What about the LD50 [5] of the same compound?
Answer: The LD50 was 150 mg/kg.

Question: What about the IC50 (Dopamine receptor [6]) of the same compound?
Answer: Its IC50 is 300 nM.

Question: And the minimal effective dose (Rattus norvegicus [7])?
Answer: The minimal effective dose was 0.1 mg/kg.

Question: And the minimal effective dose (Canis familiaris)?
Answer: The minimal effective dose was 0.1 mg/kg.

Question: Which IC50 (Rattus norvegicus [2]) does the source give for `CCCN1C[C@H](CSC)C[C@@H]2c3cccc4[nH]cc(c34)C[C@H]21.CS(=O)(=O)O` [PERGOLIDE MESYLATE] here?
Answer: The IC50 was 0.07 nM.

Question: And the Duration (Rattus norvegicus [9])?
Answer: The Duration was over 22 h.

Question: What about the minimal effective dose (Rattus norvegicus [3]) of the same compound?
Answer: The minimal effective dose was 0.1 mg/kg.

Question: What about the minimal effective dose (Rattus norvegicus [4]) of the same compound?
Answer: The minimal effective dose was 0.05 mg/kg.

Question: What about the LD50 [5] of the same compound?
Answer: The LD50 was 100 mg/kg.

Question: What about the minimal effective dose (Rattus norvegicus [7]) of the same compound?
Answer: The minimal effective dose was 0.02 mg/kg.

Question: What about the minimal effective dose (Canis familiaris) of the same compound?
Answer: Its minimal effective dose is 0.05 mg/kg.

Question: Which results are given for `CCCN1CCO[C@@H]2c3cccc4[nH]cc(c34)C[C@H]21`?
Answer: IC50 (Dopamine receptor [1]): 70 nM; IC50 (Rattus norvegicus [2]): 0.06 nM; Duration (Rattus norvegicus [9]): >22 h; minimal effective dose (Rattus norvegicus [3]): 0.1 mg/kg; minimal effective dose (Rattus norvegicus [4]): 0.05 mg/kg; LD50 [5]: 150 mg/kg; IC50 (Dopamine receptor [6]): 40 nM; minimal effective dose (Rattus norvegicus [7]): 0.01 mg/kg; minimal effective dose (Canis familiaris): 0.01 mg/kg

Question: Which results are given for `CN1CCO[C@@H]2c3cccc4[nH]cc(c34)C[C@H]21`?
Answer: IC50 (Dopamine receptor [1]): 800 nM; IC50 (Rattus norvegicus [2]): 17 nM; minimal effective dose (Rattus norvegicus [3]): 0.5 mg/kg; minimal effective dose (Rattus norvegicus [4]): 0.1 mg/kg; IC50 (Dopamine receptor [6]): 2500 nM; minimal effective dose (Rattus norvegicus [7]): 0.2 mg/kg; Duration (Rattus norvegicus [10]): 4 h; minimal effective dose (Canis familiaris): 0.1 mg/kg

Question: Which IC50 (Dopamine receptor [1]) does the source give for `c1cc2c3c(c[nH]c3c1)C[C@H]1NCCO[C@H]21` here?
Answer: The IC50 was 5000 nM.

Question: What about the IC50 (Rattus norvegicus [2]) of the same compound?
Answer: The IC50 was 300 nM.

Question: And the Duration (Rattus norvegicus [9])?
Answer: The Duration was 3 h.

Question: What about the minimal effective dose (Rattus norvegicus [3]) of the same compound?
Answer: Its minimal effective dose is 5 mg/kg.

Question: And the minimal effective dose (Rattus norvegicus [4])?
Answer: The minimal effective dose was 1 mg/kg.

Question: And the LD50 [5]?
Answer: The LD50 was 150 mg/kg.

Question: And the IC50 (Dopamine receptor [6])?
Answer: Its IC50 is 7000 nM.

Question: And the minimal effective dose (Rattus norvegicus [7])?
Answer: The minimal effective dose was 0.5 mg/kg.

Question: What about the minimal effective dose (Canis familiaris) of the same compound?
Answer: Its minimal effective dose is over 0.5 mg/kg.

Question: For `CN1CCO[C@@H]2c3cccc4[nH]c(Br)c(c34)C[C@H]21`, which IC50 (Dopamine receptor [1]) is on record?
Answer: Its IC50 is 1000 nM.

Question: What about the IC50 (Rattus norvegicus [2]) of the same compound?
Answer: The IC50 was 100 nM.

Question: What about the minimal effective dose (Rattus norvegicus [3]) of the same compound?
Answer: The minimal effective dose was 20 mg/kg.

Question: And the minimal effective dose (Rattus norvegicus [4])?
Answer: Its minimal effective dose is 1 mg/kg.

Question: And the LD50 [5]?
Answer: The LD50 was 35 mg/kg.

Question: And the IC50 (Dopamine receptor [6])?
Answer: The IC50 was 3000 nM.

Question: And the Duration (Rattus norvegicus [11])?
Answer: The Duration was 3 h.

Question: What about the minimal effective dose (Rattus norvegicus [7]) of the same compound?
Answer: The minimal effective dose was 1 mg/kg.

Question: What about the minimal effective dose (Canis familiaris) of the same compound?
Answer: Its minimal effective dose is 0.5 mg/kg.
